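Following 48 hours of exposure in 96-well plates, responses at five concentrations were used to interpolate endpoints linearly. The concentration for 50% growth inhibition is given as GI50.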 Active and inactive are the calls of the source. Rule as the data show it: active = GI50 up to about 1.1 µM and inactive = higher.
Experiments:
Test in all cases: NCI tumour cell line growth inhibition, 48 h
[1] = system: SK-OV-3
[2] = system: OVCAR-3
[3] = system: A498
[4] = system: NCI-H23
[5] = system: UACC-257
[6] = system: SNB-75
[7] = system: CCRF-CEM
[8] = system: SNB-19
[9] = system: SK-MEL-28
[10] = system: HT-29
[11] = system: ACHN
[12] = system: BT-549
[13] = system: MOLT-4
[14] = system: TK-10
[15] = system: KM12
[16] = system: SK-MEL-5
[17] = system: HCC 2998
[18] = system: 786-0
[19] = system: RPMI-8226
[20] = system: SW-620

| SMILES | GI50 [1] | GI50 [2] | GI50 [3] | GI50 [4] | GI50 [5] | GI50 [6] | GI50 [7] | GI50 [8] | GI50 [9] | GI50 [10] | GI50 [11] | GI50 [12] | GI50 [13] | GI50 [14] | GI50 [15] | GI50 [16] | GI50 [17] | GI50 [18] | GI50 [19] | GI50 [20] |
| --- | --- | --- | --- | --- | --- | --- | --- | --- | --- | --- | --- | --- | --- | --- | --- | --- | --- | --- | --- | --- |
| C(=C\c1ccco1)/c1cccc(/C=C/c2ccco2)n1 | > 50 µM (inactive) | > 50 µM (inactive) | > 50 µM (inactive) | > 50 µM (inactive) | > 50 µM (inactive) | 13.2 µM (inactive) | > 50 µM (inactive) | > 50 µM (inactive) | > 50 µM (inactive) | > 50 µM (inactive) | > 50 µM (inactive) | > 50 µM (inactive) | > 50 µM (inactive) | > 50 µM (inactive) | > 50 µM (inactive) | > 50 µM (inactive) | > 50 µM (inactive) | > 50 µM (inactive) | > 50 µM (inactive) | > 50 µM (inactive) |
| O=C1C(C(c2ccccc2)N2CCOCC2)=C(O)C(c2ccccc2)N1c1ccccc1 (stereo not given) | > 10 µM (inactive) | > 10 µM (inactive) | > 10 µM (inactive) | > 10 µM (inactive) | > 10 µM (inactive) | 3.58 µM (inactive) | > 10 µM (inactive) | > 10 µM (inactive) | > 10 µM (inactive) | > 10 µM (inactive) | > 10 µM (inactive) | > 10 µM (inactive) | 4.31 µM (inactive) | > 10 µM (inactive) | > 10 µM (inactive) | > 10 µM (inactive) | > 10 µM (inactive) | > 10 µM (inactive) | > 10 µM (inactive) | > 10 µM (inactive) |
| CC(=O)OC/C=C/[C@H](O[Si](C)(C)C(C)(C)C)[C@@H](O)/C=C/COC(C)=O | > 100 µM (inactive) | > 100 µM (inactive) | > 100 µM (inactive) | > 100 µM (inactive) | > 100 µM (inactive) | 5.45 µM (inactive) | 26 µM (inactive) | > 100 µM (inactive) | > 100 µM (inactive) | > 100 µM (inactive) | > 100 µM (inactive) | > 100 µM (inactive) | 23.7 µM (inactive) | > 100 µM (inactive) | > 100 µM (inactive) | > 100 µM (inactive) | > 100 µM (inactive) | > 100 µM (inactive) | 20.6 µM (inactive) | > 100 µM (inactive) |
| O=C1C=C(Nc2ccc(S(=O)(=O)Nc3nccs3)cc2)c2ccccc2C1=O | > 100 µM (inactive) | 17 µM (inactive) | 71 µM (inactive) | 35.6 µM (inactive) | 31.6 µM (inactive) | 21.5 µM (inactive) | 15.2 µM (inactive) | 29.4 µM (inactive) | 16.5 µM (inactive) | 19.1 µM (inactive) | 21 µM (inactive) | 20.7 µM (inactive) | 11.8 µM (inactive) | > 100 µM (inactive) | 17.8 µM (inactive) | 19.9 µM (inactive) | 22.2 µM (inactive) | 36.6 µM (inactive) | 37.3 µM (inactive) | 19.4 µM (inactive) |
| O=C1/C(=C/c2cccnc2)C(n2cccc2)c2c(Br)sc(Br)c21 (stereo not given) | 15.8 µM (inactive) | 1.92 µM (inactive) | 16.6 µM (inactive) | 2.52 µM (inactive) | 1.72 µM (inactive) | 2 µM (inactive) | 1.93 µM (inactive) | 4.7 µM (inactive) | 2.53 µM (inactive) | 2.79 µM (inactive) | 3.28 µM (inactive) | 9.57 µM (inactive) | 2.19 µM (inactive) | 1.69 µM (inactive) | 3.43 µM (inactive) | 7.18 µM (inactive) | 0.916 µM (active) | 2.55 µM (inactive) | 1.95 µM (inactive) | 2.32 µM (inactive) |
| COC(=O)c1ccc([N+](=O)[O-])c(O)c1 | > 100 µM (inactive) | > 100 µM (inactive) | > 100 µM (inactive) | > 100 µM (inactive) | > 100 µM (inactive) | > 100 µM (inactive) | > 100 µM (inactive) | > 100 µM (inactive) | > 100 µM (inactive) | > 100 µM (inactive) | > 100 µM (inactive) | > 100 µM (inactive) | > 100 µM (inactive) | > 100 µM (inactive) | > 100 µM (inactive) | > 100 µM (inactive) | > 100 µM (inactive) | > 100 µM (inactive) | > 100 µM (inactive) | > 100 µM (inactive) |
| CC(=O)c1c(C(F)(F)F)[n+]([O-])c2cc(Cl)c(Cl)cc2[n+]1[O-] | 1.46 µM (inactive) | 1.36 µM (inactive) | 1.15 µM (inactive) | 0.938 µM (active) | 0.762 µM (active) | 1.07 µM (active) | 0.146 µM (active) | 0.83 µM (active) | 1.88 µM (inactive) | 0.792 µM (active) | 0.548 µM (active) | 0.211 µM (active) | 0.0798 µM (active) | 0.212 µM (active) | 0.109 µM (active) | 0.796 µM (active) | 0.184 µM (active) | 0.168 µM (active) | 0.129 µM (active) | 0.393 µM (active) |
| CC(=O)OC(/C=C/c1ccccc1)=C(OC(C)C)/C1=C(\c2ccccc2)SCCCSC1=O | > 100 µM (inactive) | > 100 µM (inactive) | > 100 µM (inactive) | > 100 µM (inactive) | > 100 µM (inactive) | 52.6 µM (inactive) | 91 µM (inactive) | > 100 µM (inactive) | > 100 µM (inactive) | > 100 µM (inactive) | > 100 µM (inactive) | 44.6 µM (inactive) | > 100 µM (inactive) | > 100 µM (inactive) | > 100 µM (inactive) | > 100 µM (inactive) | > 100 µM (inactive) | > 100 µM (inactive) | 35.6 µM (inactive) | > 100 µM (inactive) |
| CCOCC(=O)N[C@H]1CCc2cc(OC)c(OC)c(OC)c2-c2ccc(SC)c(=O)cc21 | 0.0272 µM (active) | < 0.01 µM (active) | < 0.01 µM (active) | < 0.01 µM (active) | < 0.0169 µM (active) | 0.0102 µM (active) | < 0.0182 µM (active) | < 0.01 µM (active) | > 4.65 µM (inactive) | < 0.01 µM (active) | < 0.0117 µM (active) | < 0.01 µM (active) | < 0.01 µM (active) | 0.406 µM (active) | < 0.01 µM (active) | < 0.01 µM (active) | < 0.01 µM (active) | < 0.01 µM (active) | < 0.01 µM (active) | < 0.01 µM (active) |
| CC(=O)OC1(C)C=CC(=O)C=C1 | > 100 µM (inactive) | 51.8 µM (inactive) | 31.6 µM (inactive) | 27.5 µM (inactive) | 17.1 µM (inactive) | 84.1 µM (inactive) | 44.1 µM (inactive) | 48.2 µM (inactive) | 23.6 µM (inactive) | 63.5 µM (inactive) | 17.5 µM (inactive) | 57.3 µM (inactive) | 30.3 µM (inactive) | 22.5 µM (inactive) | > 100 µM (inactive) | 40.2 µM (inactive) | > 100 µM (inactive) | 23.4 µM (inactive) | 37.3 µM (inactive) | 60.4 µM (inactive) |
| C#CCN(Cc1ccc2nc(OC)c(OC)nc2c1)c1cc(OC)c(OC)c(OC)c1 | 24.5 µM (inactive) | 37.8 µM (inactive) | 35.5 µM (inactive) | 8.36 µM (inactive) | 12.3 µM (inactive) | 33.7 µM (inactive) | 34.9 µM (inactive) | 26.6 µM (inactive) | 40.9 µM (inactive) | 21.8 µM (inactive) | 21 µM (inactive) | 15.4 µM (inactive) | 16.9 µM (inactive) | 35.5 µM (inactive) | 15 µM (inactive) | 7.82 µM (inactive) | 35.1 µM (inactive) | 24 µM (inactive) | 5.6 µM (inactive) | 30.2 µM (inactive) |

— ChEMBL document CHEMBL1201862, “PubChem BioAssay data set” (2004)
